{"source": "patent EP2511272B1", "about": "“Synthetic analogues of abscisic acid with anti-inflammatory and insulin release stimulation effects on human cells” (Universita' degli Studi di Genova, priority 2011, dated 2012)", "key": {"[1]": {"test": "Stability without extraction in H2O and HBSS (HPLC-MS)", "assay_type": "physicochemical", "settings": "10 µM, 37 °C", "method": "(§1) Additionally, stability tests were carried out in water, in HBSS and in HBSS in the presence of human granulocytes at time 0, and after 1 and 2 hrs at 37 °C, and carrying out HPLC-MSS analysis without extracting the analyte of interest.\n(§2) In order to test the compound prepared according to example 1 for stability in HBSS in the presence, or absence, of granulocytes, 1 x 10^8 cells were used in 2 ml of HBSS (with calcium and magnesium added) containing 10 µM of compound prepared according to example 1 at 37°C. Samples of 500 µl each were drawn at time 0, and after 1 and 2 hrs and the cells were separated by centrifugation at 200xg for 5 minutes; the supernatant was then recovered and directly analysed in HPLC-MS.\n(§3) The HPLC-MS system used consists of an Agilent 1100 capillary chromatograph equipped with a diode array detector (DAD) and coupled with an Agilent 1100 series LC/MSD Trap mass spectometer with orthogonal electrospray source and a ionic-trap analyser.\n(§4) The detection wavelength was 254 nm and the MS spectrum was recorded in negative ions mode in an m/z range of 50-300.\n(§5) The amount of compound of example 1 in the extracts and supernatants was computed as the area of the peak under the extracted ion current m/z 279.3, normalized for the ionization efficiency of internal standard (hexadeuterated ABA) used for HPLC-MS analysis. Furthermore, the concentration was computed using the recovery rates obtained from the evaluation of counts per minute (cpm) of extracted [^3H]ABA."}, "human granulocytes [2]": {"test_system": "human granulocytes", "test": "Stability without extraction in HBSS in the presence of human granulocytes (HPLC-MS)", "assay_type": "in vitro ADME", "settings": "for Stability (without extraction): Granulocytes in HBSS, 10 µM, 37 °C", "method": "as §1, §2, §3, §4, §5"}, "granulocytes": {"test_system": "granulocytes", "test": "Inhibition of ABA-induced chemotaxis (granulocyte migration, ChemoTx)", "assay_type": "cell-based, human"}, "ABA receptor": {"biological_target": "T1, ABA receptor (Homo sapiens, UniProt Q9NS86)", "T1 construct": "endogenous in cells; host or cells: human granulocytes (intact cells)", "T1 sequence (Q9NS86 1-450)": "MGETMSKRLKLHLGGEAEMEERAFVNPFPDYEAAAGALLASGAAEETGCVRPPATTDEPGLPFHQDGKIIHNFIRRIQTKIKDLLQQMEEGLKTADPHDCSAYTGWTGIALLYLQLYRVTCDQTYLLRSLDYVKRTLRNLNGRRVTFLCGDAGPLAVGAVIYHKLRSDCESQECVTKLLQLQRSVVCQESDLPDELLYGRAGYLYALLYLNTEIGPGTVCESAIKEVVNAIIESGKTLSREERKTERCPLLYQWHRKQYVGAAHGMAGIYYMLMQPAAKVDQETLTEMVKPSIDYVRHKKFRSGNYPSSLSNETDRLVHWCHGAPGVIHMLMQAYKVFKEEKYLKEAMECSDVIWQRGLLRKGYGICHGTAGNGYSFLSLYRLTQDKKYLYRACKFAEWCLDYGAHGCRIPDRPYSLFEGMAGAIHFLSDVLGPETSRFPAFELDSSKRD", "test": "Competition binding with [^3H]-ABA on human granulocytes", "method": "Human granulocytes (7 x 10^6 per point), after ON incubation in complete DMEM/F12, were incubated in triplicate at 25 °C for 60 min in 100 µl of HBSS spiked with glucose 10 mM in the presence either of an excess of unlabeled ABA (1 mM) (in order to determine the non-specific binding rate) or of increasing concentrations of compound prepared according to example 1 (from 0,01 nM up to 100 µM). To each compound, 10 nM of [^3H]-ABA (GE Healthcare) with specific activity of 98,000 cpm/pmole were added. At the end of incubation, the cells were centrifuged for 30 sec at […], the supernatant was removed and discarded, and the pellet was washed once wih an excess of HBSS in ice, and centrifuged for 30 sec at 17,000xg. The pellet was resuspended in 200 µl of de-ionized water and radioactivity of cells was determined after addition of scintillation cocktail in a β counter.\nSpecific binding was computed as the difference between the total binding of [^3H]-ABA in the cells and the binding of [^3H]-ABA in the presence of an excess of unlabeled ABA (1 mM) (non-specific binding).\nThe experiment was carried out five times in triplicate."}, "human granulocytes [3]": {"test_system": "human granulocytes", "test": "Cytotoxicity, CellTiter 96 AQueous One Solution assay", "assay_type": "cell-based", "settings": "24 hrs"}, "[4]": {"test": "Stability after extraction from H2O and HBSS (HPLC-MS)", "assay_type": "physicochemical", "settings": "for Stability after extraction (amount found): 10 µM; for degradation: 0 vs 24 hrs", "method": "Compound prepared according to example 1 was tested for stability at 10 µM concentration in deionized water, phosphate buffer (HBSS with calcium and magnesium) and human plasma for 0 and after 24 hrs at 37 °C, by carrying out the extraction as described in Materials and Methods, and subsequent HPLC-MS analysis for the analyte of interest.\nFor stability tests, to 2 ml of deionized water, HBSS or human plasma, the compound of example 1 (10 µM) and 5,000 cpm of [^3H]ABA were added, for the purpose of evaluating the recovery after the extraction procedure. The so prepared samples were exctracted at time 0 and after 24 hrs.\nFor the extraction, 8 ml was added of distilled methanol (methanol/water : 80/20 vol/vol) and the mixture was kept at -20 °C overnight.\nThe following day the samples were centrifuged at 800xg for 10 minutes and the supernatant was concentrated to dryness by Rotavapor. The reconstituted aqueous solution was acidified at pH 2.6 with 10 % trifluoroacetric acid (TFA) and was extracted three times with diethyl ether (diethyl ether/water: 1:1 vol/vol).\nThe ethereal phase was finally removed by Rotavapor and the extraxt was resuspended in 1 ml of HBSS; 8 µl of such solution was analysed by HPLC-MS, and 100 µl was used for radioactivity counting by a Packard β-counter in order to compute extraction recovery.\nas §3, §4, §5"}, "[5]": {"test_system": "Raw 264.7 (murine monocitic leukemia)", "test": "Cytotoxicity, CellTiter 96 AQueous One Solution assay", "assay_type": "cell-based", "settings": "24 hrs"}}}
{"smiles": "CC(=C/C(=O)O)/C=C/C1(O)C(C)(C)CC(=O)C2OC21C", "note": "(stereo not drawn) [Example 1, 2'α,3'α-dihydro-2'α,3'α-epoxyabscisic acid]", "values": [{"measurement": "Stability (without extraction)", "setting": "[1]; H2O, 0 hr", "value": 100, "unit": "%"}, {"measurement": "Stability (without extraction)", "setting": "[1]; H2O, 1 h", "value": 100, "unit": "%"}, {"measurement": "Stability (without extraction)", "setting": "[1]; H2O, 2 hrs", "value": 98, "unit": "%"}, {"measurement": "Stability (without extraction)", "setting": "[1]; HBSS, 0 hr", "value": 100, "unit": "%"}, {"measurement": "Stability (without extraction)", "setting": "[1]; HBSS, 1 h", "value": 100, "unit": "%"}, {"measurement": "Stability (without extraction)", "setting": "[1]; HBSS, 2 hrs", "value": 89, "unit": "%"}, {"measurement": "Stability (without extraction)", "setting": "human granulocytes [2]; 0 hr", "value": 94, "unit": "%"}, {"measurement": "Stability (without extraction)", "setting": "human granulocytes [2]; 1 h", "value": 82, "unit": "%"}, {"measurement": "Stability (without extraction)", "setting": "human granulocytes [2]; 2 hrs", "value": 73, "unit": "%"}, {"measurement": "degradation rate", "setting": "human granulocytes [2]; phosphate buffer with human granulocytes, non-extracted samples", "value": "about 10 %/ hour"}, {"measurement": "CI±SD (chemotactic index)", "setting": "granulocytes; ABA 1 µM + compound 10 nM", "value": "1.26±0.07"}, {"measurement": "inhibition at 0.01 µM", "setting": "granulocytes; Homo sapiens, migration towards ABA 1 µM, compound 10 nM", "value": 57, "unit": "%"}, {"measurement": "Ki", "setting": "ABA receptor; Cheng-Prusoff, [ABA] =10 nM, KD ABA = 11 nM, 95% confidence intervals 0.25 nM to 0.83 nM, read-out: inhibition constant Ki", "value": 460, "unit": "pM"}, {"measurement": "IC50", "setting": "ABA receptor; displaces 50 % of radioligand specific binding, 95 % confidence intervals 0.48 nM to 1.58 nM", "value": 870, "unit": "pM"}, {"measurement": "number of cells", "setting": "human granulocytes [3]; 1 nM", "value": 151138}, {"measurement": "vitality %", "setting": "human granulocytes [3]; 1 nM", "value": 89, "unit": "%"}, {"measurement": "number of cells", "setting": "human granulocytes [3]; 10 nM", "value": 191138}, {"measurement": "vitality %", "setting": "human granulocytes [3]; 10 nM", "value": 100, "unit": "%"}, {"measurement": "number of cells", "setting": "human granulocytes [3]; 1 µM", "value": 132555}, {"measurement": "vitality %", "setting": "human granulocytes [3]; 1 µM", "value": 83, "unit": "%"}, {"measurement": "number of cells", "setting": "human granulocytes [3]; 100 µM", "value": 175388}, {"measurement": "vitality %", "setting": "human granulocytes [3]; 100 µM", "value": 96, "unit": "%"}, {"measurement": "Stability after extraction (amount found)", "setting": "[4]; H2O, 0 hr, equals extraction yield, listed as compound of example 1", "value": 100, "unit": "%"}, {"measurement": "Stability after extraction (amount found)", "setting": "[4]; H2O, 0 hr, equals extraction yield, listed as compound prepared according to example 1", "value": 100, "unit": "%"}, {"measurement": "Stability after extraction (amount found)", "setting": "[4]; H2O, 24 hrs at 37 °C", "value": 86, "unit": "%"}, {"measurement": "Stability after extraction (amount found)", "setting": "[4]; HBSS, 0 hr, equals extraction yield, listed as compound of example 1", "value": 76, "unit": "%"}, {"measurement": "Stability after extraction (amount found)", "setting": "[4]; HBSS, 0 hr, equals extraction yield, listed as compound prepared according to example 1", "value": 76, "unit": "%"}, {"measurement": "Stability after extraction (amount found)", "setting": "[4]; HBSS, 24 hrs at 37 °C", "value": 73, "unit": "%"}, {"measurement": "degradation", "setting": "[4]; in phosphate buffer", "value": 3, "unit": "%"}, {"measurement": "degradation", "setting": "[4]; in water", "value": 14, "unit": "%"}, {"measurement": "number of cells", "setting": "[5]; 1 nM", "value": 306321}, {"measurement": "vitality %", "setting": "[5]; 1 nM", "value": 100, "unit": "%"}, {"measurement": "number of cells", "setting": "[5]; 10 nM", "value": 30555}, {"measurement": "vitality %", "setting": "[5]; 10 nM", "value": 100, "unit": "%"}, {"measurement": "number of cells", "setting": "[5]; 1 µM", "value": 274987}, {"measurement": "vitality %", "setting": "[5]; 1 µM", "value": 90, "unit": "%"}, {"measurement": "number of cells", "setting": "[5]; 100 µM", "value": 290264}, {"measurement": "vitality %", "setting": "[5]; 100 µM", "value": 95, "unit": "%"}]}
